{"source": "the kinase profiling compilation of Christmann-Franck et al. (2016)", "test_in_all_cases": "KINOMEscan competition binding", "conditions_in_all_cases": "compound 10.0 µM", "key": {"YSK4 (human)": {"molecular_target": "YSK4 (human) (UniProt Q56UN5)"}, "PKMYT1 (human)": {"molecular_target": "PKMYT1 (human) (UniProt Q99640)"}, "[1]": {"test_system": "EGFR (human), P00533 [746-750 del]"}, "NEK11 (human)": {"molecular_target": "NEK11 (human) (UniProt Q8NG66)"}, "[2]": {"molecular_target": "TYK2 JH1 catalytic (human) (UniProt P29597)"}, "TEK (human)": {"molecular_target": "TEK (human) (UniProt Q02763)"}, "STK4 (human)": {"molecular_target": "STK4 (human) (UniProt Q13043)"}, "MINK1 (human)": {"molecular_target": "MINK1 (human) (UniProt Q8N4C8)", "sequence (Q8N4C8 whole entry, looked up)": "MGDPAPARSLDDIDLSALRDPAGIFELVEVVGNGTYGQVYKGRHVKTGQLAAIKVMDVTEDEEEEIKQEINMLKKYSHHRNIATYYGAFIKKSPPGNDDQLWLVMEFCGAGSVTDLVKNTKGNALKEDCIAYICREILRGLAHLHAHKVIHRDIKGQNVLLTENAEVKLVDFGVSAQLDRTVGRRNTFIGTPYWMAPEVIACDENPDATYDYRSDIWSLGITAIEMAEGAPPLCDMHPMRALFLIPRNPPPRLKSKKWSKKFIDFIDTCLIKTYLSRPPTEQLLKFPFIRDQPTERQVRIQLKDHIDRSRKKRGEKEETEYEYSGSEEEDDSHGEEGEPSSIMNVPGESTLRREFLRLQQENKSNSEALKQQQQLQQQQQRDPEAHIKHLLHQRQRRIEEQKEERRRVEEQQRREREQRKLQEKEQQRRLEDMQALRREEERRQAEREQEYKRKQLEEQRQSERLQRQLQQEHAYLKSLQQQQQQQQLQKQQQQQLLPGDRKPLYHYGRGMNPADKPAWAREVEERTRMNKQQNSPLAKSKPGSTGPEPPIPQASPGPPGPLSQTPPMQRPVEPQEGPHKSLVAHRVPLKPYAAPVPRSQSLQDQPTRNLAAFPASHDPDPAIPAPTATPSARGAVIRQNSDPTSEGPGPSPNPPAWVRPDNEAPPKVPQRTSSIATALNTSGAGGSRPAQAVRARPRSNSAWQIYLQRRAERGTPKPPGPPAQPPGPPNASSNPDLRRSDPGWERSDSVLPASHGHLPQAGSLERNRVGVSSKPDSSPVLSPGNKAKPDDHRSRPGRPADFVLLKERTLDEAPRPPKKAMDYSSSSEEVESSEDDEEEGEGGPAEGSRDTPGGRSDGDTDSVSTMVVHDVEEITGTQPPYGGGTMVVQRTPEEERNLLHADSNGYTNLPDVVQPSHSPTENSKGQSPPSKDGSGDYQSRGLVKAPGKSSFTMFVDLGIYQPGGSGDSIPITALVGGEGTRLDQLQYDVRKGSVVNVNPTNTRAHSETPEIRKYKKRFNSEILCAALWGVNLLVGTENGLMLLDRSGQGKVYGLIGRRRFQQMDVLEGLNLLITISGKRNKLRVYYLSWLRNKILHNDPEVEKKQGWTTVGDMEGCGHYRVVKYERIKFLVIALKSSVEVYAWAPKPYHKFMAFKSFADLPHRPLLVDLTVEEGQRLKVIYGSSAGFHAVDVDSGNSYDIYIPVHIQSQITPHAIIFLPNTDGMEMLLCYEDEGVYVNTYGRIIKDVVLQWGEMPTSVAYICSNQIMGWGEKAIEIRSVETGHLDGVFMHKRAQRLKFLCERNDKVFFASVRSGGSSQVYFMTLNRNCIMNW"}, "MAP2K1 (human)": {"molecular_target": "MAP2K1 (human) (UniProt Q02750)"}, "TAOK3 (human)": {"molecular_target": "TAOK3 (human) (UniProt Q9H2K8)"}, "MAPK4 (human)": {"molecular_target": "MAPK4 (human) (UniProt P31152)"}, "[3]": {"test_system": "RET (human), P07949 [M918T]"}, "EIF2AK1 (human)": {"molecular_target": "EIF2AK1 (human) (UniProt Q9BQI3)"}, "RPS6KA6 KD2 (human)": {"molecular_target": "RPS6KA6 KD2 (human) (UniProt Q9UK32)"}, "CDC2L2 (human)": {"molecular_target": "CDC2L2 (human) (UniProt Q9UQ88)"}, "PIM2 (human)": {"molecular_target": "PIM2 (human) (UniProt Q9P1W9)", "sequence (Q9P1W9 whole entry, looked up)": "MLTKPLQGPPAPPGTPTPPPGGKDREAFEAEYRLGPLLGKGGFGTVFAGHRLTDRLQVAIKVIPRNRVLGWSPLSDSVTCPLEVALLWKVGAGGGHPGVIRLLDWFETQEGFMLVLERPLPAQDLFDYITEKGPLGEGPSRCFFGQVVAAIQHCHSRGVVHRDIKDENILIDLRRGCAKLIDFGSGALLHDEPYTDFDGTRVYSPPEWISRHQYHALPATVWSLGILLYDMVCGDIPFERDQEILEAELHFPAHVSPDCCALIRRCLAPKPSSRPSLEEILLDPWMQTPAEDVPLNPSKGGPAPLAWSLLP"}, "RPS6KA2 KD2 (human)": {"molecular_target": "RPS6KA2 KD2 (human) (UniProt Q15349)", "sequence (Q15349 whole entry, looked up)": "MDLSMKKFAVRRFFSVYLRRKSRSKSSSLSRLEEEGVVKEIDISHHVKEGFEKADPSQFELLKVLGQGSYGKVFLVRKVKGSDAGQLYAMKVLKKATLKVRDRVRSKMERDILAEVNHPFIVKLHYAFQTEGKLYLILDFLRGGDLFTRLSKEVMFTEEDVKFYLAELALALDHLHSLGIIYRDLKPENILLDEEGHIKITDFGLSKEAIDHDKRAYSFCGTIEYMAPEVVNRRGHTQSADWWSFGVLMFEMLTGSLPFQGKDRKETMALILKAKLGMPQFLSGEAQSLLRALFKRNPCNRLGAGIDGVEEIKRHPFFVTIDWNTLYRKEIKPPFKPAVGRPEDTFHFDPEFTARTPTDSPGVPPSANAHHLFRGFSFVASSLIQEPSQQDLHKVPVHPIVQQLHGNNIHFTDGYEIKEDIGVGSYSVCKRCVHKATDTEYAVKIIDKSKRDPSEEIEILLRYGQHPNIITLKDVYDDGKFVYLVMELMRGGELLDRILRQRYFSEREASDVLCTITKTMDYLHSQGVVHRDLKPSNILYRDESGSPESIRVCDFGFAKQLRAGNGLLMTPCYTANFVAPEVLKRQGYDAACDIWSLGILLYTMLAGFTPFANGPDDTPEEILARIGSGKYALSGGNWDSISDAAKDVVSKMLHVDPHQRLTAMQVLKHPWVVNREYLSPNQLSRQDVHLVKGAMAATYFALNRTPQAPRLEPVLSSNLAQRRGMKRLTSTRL"}, "INSR (human)": {"molecular_target": "INSR (human) (UniProt P06213)"}, "PRKCE (human)": {"molecular_target": "PRKCE (human) (UniProt Q02156)"}, "EPHA8 (human)": {"molecular_target": "EPHA8 (human) (UniProt P29322)"}, "HIPK2 (human)": {"molecular_target": "HIPK2 (human) (UniProt Q9H2X6)"}, "FGFR2 (human)": {"molecular_target": "FGFR2 (human) (UniProt P21802)"}, "FYN (human)": {"molecular_target": "FYN (human) (UniProt P06241)"}, "ERBB3 (human)": {"molecular_target": "ERBB3 (human) (UniProt P21860)"}, "TNK2 (human)": {"molecular_target": "TNK2 (human) (UniProt Q07912)", "sequence (Q07912 whole entry, looked up)": "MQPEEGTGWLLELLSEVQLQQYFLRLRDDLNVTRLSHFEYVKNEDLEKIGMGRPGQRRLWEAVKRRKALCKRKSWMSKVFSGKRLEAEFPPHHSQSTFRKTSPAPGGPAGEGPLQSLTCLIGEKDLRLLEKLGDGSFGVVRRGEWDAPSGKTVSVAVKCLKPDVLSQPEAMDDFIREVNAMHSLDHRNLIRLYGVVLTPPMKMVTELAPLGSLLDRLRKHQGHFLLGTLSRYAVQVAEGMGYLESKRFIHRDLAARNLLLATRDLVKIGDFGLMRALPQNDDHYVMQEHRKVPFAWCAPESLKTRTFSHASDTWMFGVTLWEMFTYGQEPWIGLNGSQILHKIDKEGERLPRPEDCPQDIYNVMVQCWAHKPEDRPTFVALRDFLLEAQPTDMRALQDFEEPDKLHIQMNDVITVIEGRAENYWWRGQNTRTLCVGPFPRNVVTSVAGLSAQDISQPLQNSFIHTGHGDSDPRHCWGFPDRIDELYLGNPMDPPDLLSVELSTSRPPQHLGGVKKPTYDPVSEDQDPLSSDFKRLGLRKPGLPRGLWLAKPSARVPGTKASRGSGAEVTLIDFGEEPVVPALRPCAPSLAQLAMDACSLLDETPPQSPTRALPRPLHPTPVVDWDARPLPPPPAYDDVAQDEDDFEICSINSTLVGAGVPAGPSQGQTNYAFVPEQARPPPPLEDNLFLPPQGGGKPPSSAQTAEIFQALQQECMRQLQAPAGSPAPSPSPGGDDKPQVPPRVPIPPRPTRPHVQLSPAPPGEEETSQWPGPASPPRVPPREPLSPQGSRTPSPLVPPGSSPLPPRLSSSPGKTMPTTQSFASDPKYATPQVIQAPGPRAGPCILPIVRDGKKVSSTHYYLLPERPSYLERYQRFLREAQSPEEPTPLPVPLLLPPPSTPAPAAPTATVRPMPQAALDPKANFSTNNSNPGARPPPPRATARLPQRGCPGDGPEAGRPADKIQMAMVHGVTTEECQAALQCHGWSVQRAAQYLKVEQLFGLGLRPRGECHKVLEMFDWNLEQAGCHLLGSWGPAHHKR"}, "CDKL5 (human)": {"molecular_target": "CDKL5 (human) (UniProt O76039)", "sequence (O76039 whole entry, looked up)": "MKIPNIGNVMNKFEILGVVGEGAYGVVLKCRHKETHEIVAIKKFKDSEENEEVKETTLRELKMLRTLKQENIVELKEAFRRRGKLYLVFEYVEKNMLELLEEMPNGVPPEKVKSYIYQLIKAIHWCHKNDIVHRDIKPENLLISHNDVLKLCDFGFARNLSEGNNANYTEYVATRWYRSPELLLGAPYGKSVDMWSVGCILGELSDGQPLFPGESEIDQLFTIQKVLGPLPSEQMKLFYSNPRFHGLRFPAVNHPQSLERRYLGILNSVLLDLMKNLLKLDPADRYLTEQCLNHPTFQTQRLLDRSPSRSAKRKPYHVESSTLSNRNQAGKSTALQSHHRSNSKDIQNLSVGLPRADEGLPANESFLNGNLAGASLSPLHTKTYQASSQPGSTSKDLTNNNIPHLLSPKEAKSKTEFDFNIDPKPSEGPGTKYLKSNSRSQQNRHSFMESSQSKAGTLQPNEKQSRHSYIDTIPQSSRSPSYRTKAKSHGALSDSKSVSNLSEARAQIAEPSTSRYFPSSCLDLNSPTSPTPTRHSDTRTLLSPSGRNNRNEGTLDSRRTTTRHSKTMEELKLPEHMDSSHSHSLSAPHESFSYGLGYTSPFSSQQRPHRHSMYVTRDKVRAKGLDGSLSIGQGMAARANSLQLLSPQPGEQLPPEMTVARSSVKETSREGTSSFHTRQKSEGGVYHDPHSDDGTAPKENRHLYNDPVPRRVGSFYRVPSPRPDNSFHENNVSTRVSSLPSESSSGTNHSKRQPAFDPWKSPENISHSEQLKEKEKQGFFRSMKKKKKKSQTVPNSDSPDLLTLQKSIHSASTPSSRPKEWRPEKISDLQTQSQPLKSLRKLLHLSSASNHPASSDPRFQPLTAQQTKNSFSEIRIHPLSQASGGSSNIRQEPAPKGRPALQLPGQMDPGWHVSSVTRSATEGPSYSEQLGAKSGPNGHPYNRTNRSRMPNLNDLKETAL"}, "STK10 (human)": {"molecular_target": "STK10 (human) (UniProt O94804)"}, "NTRK1 (human)": {"molecular_target": "NTRK1 (human) (UniProt P04629)"}, "DYRK2 (human)": {"molecular_target": "DYRK2 (human) (UniProt Q92630)"}, "MERTK (human)": {"molecular_target": "MERTK (human) (UniProt Q12866)"}, "ULK2 (human)": {"molecular_target": "ULK2 (human) (UniProt Q8IYT8)"}, "MYO3A (human)": {"molecular_target": "MYO3A (human) (UniProt Q8NEV4)"}, "MAP3K12 (human)": {"molecular_target": "MAP3K12 (human) (UniProt Q12852)"}, "GSK3A (human)": {"molecular_target": "GSK3A (human) (UniProt P49840)"}, "[4]": {"test_system": "EGFR (human), P00533 [T790M]"}, "MST4 (human)": {"molecular_target": "MST4 (human) (UniProt Q9P289)"}, "[5]": {"test_system": "ABL1 (human), P00519 [Y253F]"}, "ROCK2 (human)": {"molecular_target": "ROCK2 (human) (UniProt O75116)"}, "PRKCI (human)": {"molecular_target": "PRKCI (human) (UniProt P41743)", "sequence (P41743 whole entry, looked up)": "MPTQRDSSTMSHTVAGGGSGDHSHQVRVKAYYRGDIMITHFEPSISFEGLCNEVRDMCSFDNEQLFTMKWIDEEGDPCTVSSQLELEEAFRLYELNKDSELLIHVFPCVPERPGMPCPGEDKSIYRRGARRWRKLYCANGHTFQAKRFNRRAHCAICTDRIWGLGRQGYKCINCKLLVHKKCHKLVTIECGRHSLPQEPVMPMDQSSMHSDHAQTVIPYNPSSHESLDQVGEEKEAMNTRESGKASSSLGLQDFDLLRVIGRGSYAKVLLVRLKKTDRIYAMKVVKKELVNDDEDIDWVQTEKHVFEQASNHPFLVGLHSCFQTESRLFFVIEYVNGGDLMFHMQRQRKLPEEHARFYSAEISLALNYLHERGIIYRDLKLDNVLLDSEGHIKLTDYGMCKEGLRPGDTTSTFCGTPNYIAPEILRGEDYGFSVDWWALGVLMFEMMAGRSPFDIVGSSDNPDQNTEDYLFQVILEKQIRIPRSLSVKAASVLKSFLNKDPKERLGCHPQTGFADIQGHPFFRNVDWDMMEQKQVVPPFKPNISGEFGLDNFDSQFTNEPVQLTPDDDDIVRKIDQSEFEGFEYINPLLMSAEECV"}, "CSF1R (human)": {"molecular_target": "CSF1R (human) (UniProt P07333)"}, "MAP4K1 (human)": {"molecular_target": "MAP4K1 (human) (UniProt Q92918)"}, "PAK3 (human)": {"molecular_target": "PAK3 (human) (UniProt O75914)"}}}
{"compound": "Cc1cc([C@@H](C)Nc2ccccc2C(=O)O)c2nc(N3CCOCC3)cc(=O)n2c1", "values": [{"measurement": "kinase still bound, per cent of control", "setting": "YSK4 (human)", "result": 100, "unit": "%"}, {"measurement": "kinase still bound, per cent of control", "setting": "PKMYT1 (human)", "result": 99, "unit": "%"}, {"measurement": "kinase still bound, per cent of control", "setting": "[1]", "result": 100, "unit": "%"}, {"measurement": "kinase still bound, per cent of control", "setting": "NEK11 (human)", "result": 68, "unit": "%"}, {"measurement": "kinase still bound, per cent of control", "setting": "[2]", "result": 100, "unit": "%"}, {"measurement": "kinase still bound, per cent of control", "setting": "TEK (human)", "result": 94, "unit": "%"}, {"measurement": "kinase still bound, per cent of control", "setting": "STK4 (human)", "result": 72, "unit": "%"}, {"measurement": "kinase still bound, per cent of control", "setting": "MINK1 (human)", "result": 100, "unit": "%"}, {"measurement": "kinase still bound, per cent of control", "setting": "MAP2K1 (human)", "result": 100, "unit": "%"}, {"measurement": "kinase still bound, per cent of control", "setting": "TAOK3 (human)", "result": 95, "unit": "%"}, {"measurement": "kinase still bound, per cent of control", "setting": "MAPK4 (human)", "result": 82, "unit": "%"}, {"measurement": "kinase still bound, per cent of control", "setting": "[3]", "result": 100, "unit": "%"}, {"measurement": "kinase still bound, per cent of control", "setting": "EIF2AK1 (human)", "result": 100, "unit": "%"}, {"measurement": "kinase still bound, per cent of control", "setting": "RPS6KA6 KD2 (human)", "result": 71, "unit": "%"}, {"measurement": "kinase still bound, per cent of control", "setting": "CDC2L2 (human)", "result": 100, "unit": "%"}, {"measurement": "kinase still bound, per cent of control", "setting": "PIM2 (human)", "result": 83, "unit": "%"}, {"measurement": "kinase still bound, per cent of control", "setting": "RPS6KA2 KD2 (human)", "result": 100, "unit": "%"}, {"measurement": "kinase still bound, per cent of control", "setting": "INSR (human)", "result": 79, "unit": "%"}, {"measurement": "kinase still bound, per cent of control", "setting": "PRKCE (human)", "result": 100, "unit": "%"}, {"measurement": "kinase still bound, per cent of control", "setting": "EPHA8 (human)", "result": 82, "unit": "%"}, {"measurement": "kinase still bound, per cent of control", "setting": "HIPK2 (human)", "result": 77, "unit": "%"}, {"measurement": "kinase still bound, per cent of control", "setting": "FGFR2 (human)", "result": 100, "unit": "%"}, {"measurement": "kinase still bound, per cent of control", "setting": "FYN (human)", "result": 41, "unit": "%"}, {"measurement": "kinase still bound, per cent of control", "setting": "ERBB3 (human)", "result": 100, "unit": "%"}, {"measurement": "kinase still bound, per cent of control", "setting": "TNK2 (human)", "result": 100, "unit": "%"}, {"measurement": "kinase still bound, per cent of control", "setting": "CDKL5 (human)", "result": 82, "unit": "%"}, {"measurement": "kinase still bound, per cent of control", "setting": "STK10 (human)", "result": 71, "unit": "%"}, {"measurement": "kinase still bound, per cent of control", "setting": "NTRK1 (human)", "result": 69, "unit": "%"}, {"measurement": "kinase still bound, per cent of control", "setting": "DYRK2 (human)", "result": 72, "unit": "%"}, {"measurement": "kinase still bound, per cent of control", "setting": "MERTK (human)", "result": 100, "unit": "%"}, {"measurement": "kinase still bound, per cent of control", "setting": "ULK2 (human)", "result": 100, "unit": "%"}, {"measurement": "kinase still bound, per cent of control", "setting": "MYO3A (human)", "result": 100, "unit": "%"}, {"measurement": "kinase still bound, per cent of control", "setting": "MAP3K12 (human)", "result": 98, "unit": "%"}, {"measurement": "kinase still bound, per cent of control", "setting": "GSK3A (human)", "result": 100, "unit": "%"}, {"measurement": "kinase still bound, per cent of control", "setting": "[4]", "result": 100, "unit": "%"}, {"measurement": "kinase still bound, per cent of control", "setting": "MST4 (human)", "result": 100, "unit": "%"}, {"measurement": "kinase still bound, per cent of control", "setting": "[5]", "result": 100, "unit": "%"}, {"measurement": "kinase still bound, per cent of control", "setting": "ROCK2 (human)", "result": 89, "unit": "%"}, {"measurement": "kinase still bound, per cent of control", "setting": "PRKCI (human)", "result": 94, "unit": "%"}, {"measurement": "kinase still bound, per cent of control", "setting": "CSF1R (human)", "result": 55, "unit": "%"}, {"measurement": "kinase still bound, per cent of control", "setting": "MAP4K1 (human)", "result": 90, "unit": "%"}, {"measurement": "kinase still bound, per cent of control", "setting": "PAK3 (human)", "result": 12, "unit": "%"}]}
